Reference: ChEMBL document CHEMBL1201862, “PubChem BioAssay data set” (2004)
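Dose response: 5 concentrations. Exposure: 48 h. Format: 96-well plates. Endpoint: linear interpolation; highest concentration if not reached. GI50 marks 50% less growth.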 Active and inactive are the calls of the source. Cut-off read from the data, not from the text of the source: active = GI50 up to about 1.1 µM and inactive = higher. Where a SMILES comes first, the peptide text is derived from it. The star is where a group is joined. Boc = CC(C)(C)OC(=O)*; OSu = O=C1CCC(=O)N1O*

What was measured:
Experiment in all cases: growth of human tumour cells (NCI), 48 h
SK-OV-3 = tested on: SK-OV-3
SK-MEL-28 = tested on: SK-MEL-28
NCI/ADR-RES = tested on: NCI/ADR-RES
IGROV-1 = tested on: IGROV-1
K562 = tested on: K562
TK-10 = tested on: TK-10
UACC-257 = tested on: UACC-257
786-0 = tested on: 786-0
UACC-62 = tested on: UACC-62
CCRF-CEM = tested on: CCRF-CEM
NCI-H522 = tested on: NCI-H522
MOLT-4 = tested on: MOLT-4
HOP-92 = tested on: HOP-92
SW-620 = tested on: SW-620
COLO 205 = tested on: COLO 205
NCI-H460 = tested on: NCI-H460
PC-3 = tested on: PC-3
HL-60 = tested on: HL-60
SF-539 = tested on: SF-539
SK-MEL-2 = tested on: SK-MEL-2

SMILES: O=S(=O)(c1ccccc1)[C@@H]1[C@H]2C=C[C@](CS)(O2)[C@H]1S(=O)(=O)c1ccccc1
- GI50 (SK-OV-3): > 100 µM (inactive)
- GI50 (SK-MEL-28): > 100 µM (inactive)
- GI50 (NCI/ADR-RES): 53.5 µM (inactive)
- GI50 (IGROV-1): > 100 µM (inactive)
- GI50 (K562): 14.4 µM (inactive)
- GI50 (TK-10): > 100 µM (inactive)
- GI50 (UACC-257): > 100 µM (inactive)
- GI50 (786-0): 30 µM (inactive)
- GI50 (UACC-62): > 100 µM (inactive)
- GI50 (CCRF-CEM): 2.46 µM (inactive)
- GI50 (NCI-H522): 14.7 µM (inactive)
- GI50 (MOLT-4): 16.5 µM (inactive)
- GI50 (HOP-92): > 100 µM (inactive)
- GI50 (SW-620): 12.4 µM (inactive)
- GI50 (COLO 205): 79.3 µM (inactive)
- GI50 (NCI-H460): > 100 µM (inactive)
- GI50 (PC-3): 35.6 µM (inactive)
- GI50 (HL-60): 32.8 µM (inactive)

SMILES: COC(=O)C(NC(=O)c1ccccc1)c1ccco1 (stereo unspecified)
- GI50 (SK-OV-3): > 100 µM (inactive)
- GI50 (SK-MEL-28): > 100 µM (inactive)
- GI50 (SF-539): > 100 µM (inactive)
- GI50 (NCI/ADR-RES): > 100 µM (inactive)
- GI50 (IGROV-1): > 100 µM (inactive)
- GI50 (K562): > 100 µM (inactive)
- GI50 (TK-10): > 100 µM (inactive)
- GI50 (UACC-257): > 100 µM (inactive)
- GI50 (786-0): > 100 µM (inactive)
- GI50 (UACC-62): > 100 µM (inactive)
- GI50 (CCRF-CEM): > 100 µM (inactive)
- GI50 (MOLT-4): > 100 µM (inactive)
- GI50 (HOP-92): > 100 µM (inactive)
- GI50 (SW-620): > 100 µM (inactive)
- GI50 (NCI-H460): > 100 µM (inactive)
- GI50 (PC-3): > 100 µM (inactive)
- GI50 (HL-60): > 100 µM (inactive)

SMILES: CC(NC(=O)C(NC(=O)OC(C)(C)C)C(C)C)C(=O)NCC(=O)ON1C(=O)CCC1=O (stereo not drawn) (Boc-Val-Ala-Gly-OSu; configuration not given here)
- GI50 (SK-OV-3): > 100 µM (inactive)
- GI50 (SK-MEL-28): > 100 µM (inactive)
- GI50 (SF-539): > 100 µM (inactive)
- GI50 (NCI/ADR-RES): > 100 µM (inactive)
- GI50 (IGROV-1): > 100 µM (inactive)
- GI50 (K562): > 100 µM (inactive)
- GI50 (TK-10): > 100 µM (inactive)
- GI50 (UACC-257): > 100 µM (inactive)
- GI50 (786-0): > 100 µM (inactive)
- GI50 (UACC-62): > 100 µM (inactive)
- GI50 (NCI-H522): 63.4 µM (inactive)
- GI50 (MOLT-4): 45.9 µM (inactive)
- GI50 (HOP-92): 22.8 µM (inactive)
- GI50 (SW-620): > 100 µM (inactive)
- GI50 (COLO 205): > 100 µM (inactive)
- GI50 (SK-MEL-2): > 100 µM (inactive)
- GI50 (NCI-H460): > 100 µM (inactive)
- GI50 (PC-3): > 100 µM (inactive)

SMILES: CSc1ccc(/C=C2\N=C(c3ccccc3)N(c3nc4cc(C)c(C)cc4s3)C2=O)cc1
- GI50 (SK-OV-3): 46.5 µM (inactive)
- GI50 (SK-MEL-28): 49.7 µM (inactive)
- GI50 (SF-539): 21.3 µM (inactive)
- GI50 (NCI/ADR-RES): 31.3 µM (inactive)
- GI50 (IGROV-1): 15.8 µM (inactive)
- GI50 (K562): 43.4 µM (inactive)
- GI50 (TK-10): 94.4 µM (inactive)
- GI50 (UACC-257): 43.3 µM (inactive)
- GI50 (786-0): 21.9 µM (inactive)
- GI50 (UACC-62): 28.1 µM (inactive)
- GI50 (CCRF-CEM): 9.35 µM (inactive)
- GI50 (MOLT-4): 61.9 µM (inactive)
- GI50 (HOP-92): 13.5 µM (inactive)
- GI50 (SW-620): 17.9 µM (inactive)
- GI50 (COLO 205): 35.2 µM (inactive)
- GI50 (SK-MEL-2): 16 µM (inactive)
- GI50 (NCI-H460): 36.3 µM (inactive)
- GI50 (PC-3): 22.4 µM (inactive)
- GI50 (HL-60): 20.9 µM (inactive)

SMILES: Cc1ccsc1/C=N/Nc1ncccn1
- GI50 (SK-OV-3): > 100 µM (inactive)
- GI50 (SK-MEL-28): > 100 µM (inactive)
- GI50 (NCI/ADR-RES): > 100 µM (inactive)
- GI50 (IGROV-1): > 100 µM (inactive)
- GI50 (K562): > 100 µM (inactive)
- GI50 (TK-10): > 100 µM (inactive)
- GI50 (UACC-257): > 100 µM (inactive)
- GI50 (786-0): > 100 µM (inactive)
- GI50 (UACC-62): > 100 µM (inactive)
- GI50 (CCRF-CEM): > 100 µM (inactive)
- GI50 (MOLT-4): > 100 µM (inactive)
- GI50 (HOP-92): > 100 µM (inactive)
- GI50 (SW-620): > 100 µM (inactive)
- GI50 (COLO 205): > 100 µM (inactive)
- GI50 (SK-MEL-2): > 100 µM (inactive)
- GI50 (PC-3): > 100 µM (inactive)
- GI50 (HL-60): > 100 µM (inactive)

SMILES: O=c1ccn(C2OC(CN(O)CCC3C(CO)OC(n4ccc(=O)[nH]c4=O)C3O)C(O)C2O)c(=O)[nH]1 (stereo unspecified)
- GI50 (SK-OV-3): > 100 µM (inactive)
- GI50 (SK-MEL-28): > 100 µM (inactive)
- GI50 (NCI/ADR-RES): > 100 µM (inactive)
- GI50 (IGROV-1): > 100 µM (inactive)
- GI50 (K562): > 100 µM (inactive)
- GI50 (TK-10): > 100 µM (inactive)
- GI50 (UACC-257): > 100 µM (inactive)
- GI50 (786-0): > 100 µM (inactive)
- GI50 (UACC-62): > 100 µM (inactive)
- GI50 (CCRF-CEM): > 100 µM (inactive)
- GI50 (MOLT-4): > 100 µM (inactive)
- GI50 (HOP-92): > 100 µM (inactive)
- GI50 (SW-620): > 100 µM (inactive)
- GI50 (COLO 205): > 100 µM (inactive)
- GI50 (SK-MEL-2): > 100 µM (inactive)
- GI50 (NCI-H460): > 100 µM (inactive)
- GI50 (PC-3): > 100 µM (inactive)
- GI50 (HL-60): > 100 µM (inactive)

SMILES: Nc1ccccc1OCc1cc(=O)c(OCc2ccccc2)co1
- GI50 (SK-OV-3): 23.6 µM (inactive)
- GI50 (SK-MEL-28): > 100 µM (inactive)
- GI50 (SF-539): 21.6 µM (inactive)
- GI50 (NCI/ADR-RES): 10.2 µM (inactive)
- GI50 (K562): 2.75 µM (inactive)
- GI50 (TK-10): 18.8 µM (inactive)
- GI50 (UACC-257): 14.3 µM (inactive)
- GI50 (786-0): 23.8 µM (inactive)
- GI50 (UACC-62): 0.469 µM (active)
- GI50 (CCRF-CEM): > 100 µM (inactive)
- GI50 (MOLT-4): > 100 µM (inactive)
- GI50 (HOP-92): 0.202 µM (active)
- GI50 (SW-620): 80.7 µM (inactive)
- GI50 (COLO 205): 12.6 µM (inactive)
- GI50 (NCI-H460): 7.62 µM (inactive)
- GI50 (PC-3): 34.4 µM (inactive)
- GI50 (HL-60): 14.9 µM (inactive)

SMILES: O=c1cc(-c2cccnc2)[nH]c2cc3c(cc12)OCO3
- GI50 (SK-OV-3): > 20.9 µM (inactive)
- GI50 (SK-MEL-28): 6.18 µM (inactive)
- GI50 (SF-539): 5.58 µM (inactive)
- GI50 (NCI/ADR-RES): 14.8 µM (inactive)
- GI50 (IGROV-1): 4.47 µM (inactive)
- GI50 (K562): 5.07 µM (inactive)
- GI50 (TK-10): 41.6 µM (inactive)
- GI50 (UACC-257): > 26.5 µM (inactive)
- GI50 (786-0): 33.3 µM (inactive)
- GI50 (UACC-62): 3.3 µM (inactive)
- GI50 (CCRF-CEM): 6.65 µM (inactive)
- GI50 (MOLT-4): 17.1 µM (inactive)
- GI50 (HOP-92): 13.5 µM (inactive)
- GI50 (SW-620): 6.38 µM (inactive)
- GI50 (COLO 205): 13.9 µM (inactive)
- GI50 (SK-MEL-2): 8.04 µM (inactive)
- GI50 (NCI-H460): 10.8 µM (inactive)
- GI50 (PC-3): 11 µM (inactive)
- GI50 (HL-60): 7.35 µM (inactive)

SMILES: CCN(CC)CCCC(C)Nc1cc(/C=C/c2ccc(Cl)cc2)nc2cc(N(C)C)ccc12 (stereo unspecified)
- GI50 (SK-MEL-28): 1.74 µM (inactive)
- GI50 (SF-539): 2.15 µM (inactive)
- GI50 (NCI/ADR-RES): 2.19 µM (inactive)
- GI50 (IGROV-1): 2 µM (inactive)
- GI50 (K562): 0.272 µM (active)
- GI50 (TK-10): 1.91 µM (inactive)
- GI50 (786-0): 2.92 µM (inactive)
- GI50 (UACC-62): 2.52 µM (inactive)
- GI50 (CCRF-CEM): 1.21 µM (inactive)
- GI50 (MOLT-4): 1.19 µM (inactive)
- GI50 (HOP-92): 1.74 µM (inactive)
- GI50 (SW-620): 1.33 µM (inactive)
- GI50 (NCI-H460): 1.67 µM (inactive)
- GI50 (PC-3): 1.41 µM (inactive)
- GI50 (HL-60): 1.72 µM (inactive)

SMILES: BrCC[P+](c1ccccc1)(c1ccccc1)c1ccccc1
- GI50 (SK-OV-3): 24.5 µM (inactive)
- GI50 (SK-MEL-28): 4.89 µM (inactive)
- GI50 (SF-539): 15 µM (inactive)
- GI50 (NCI/ADR-RES): 6.31 µM (inactive)
- GI50 (IGROV-1): 13.3 µM (inactive)
- GI50 (K562): 1.77 µM (inactive)
- GI50 (TK-10): 16.9 µM (inactive)
- GI50 (UACC-257): 3.7 µM (inactive)
- GI50 (786-0): 2.75 µM (inactive)
- GI50 (UACC-62): 6.58 µM (inactive)
- GI50 (CCRF-CEM): 2.25 µM (inactive)
- GI50 (MOLT-4): 4.43 µM (inactive)
- GI50 (HOP-92): 3.57 µM (inactive)
- GI50 (SW-620): 2.51 µM (inactive)
- GI50 (COLO 205): 2.87 µM (inactive)
- GI50 (SK-MEL-2): 5.26 µM (inactive)
- GI50 (NCI-H460): 19.5 µM (inactive)
- GI50 (PC-3): 5.21 µM (inactive)
- GI50 (HL-60): 2.25 µM (inactive)

SMILES: CN1CCN(c2n[nH]c(=O)c3c2nnn3Cc2ccccc2)CC1
- GI50 (SK-MEL-28): > 100 µM (inactive)
- GI50 (NCI/ADR-RES): > 100 µM (inactive)
- GI50 (K562): > 100 µM (inactive)
- GI50 (TK-10): > 100 µM (inactive)
- GI50 (UACC-257): > 100 µM (inactive)
- GI50 (786-0): > 100 µM (inactive)
- GI50 (CCRF-CEM): > 100 µM (inactive)
- GI50 (MOLT-4): > 100 µM (inactive)
- GI50 (HOP-92): 17.2 µM (inactive)
- GI50 (COLO 205): > 100 µM (inactive)
- GI50 (SK-MEL-2): > 100 µM (inactive)
- GI50 (NCI-H460): > 100 µM (inactive)
- GI50 (PC-3): 5.89 µM (inactive)
- GI50 (HL-60): > 100 µM (inactive)
